Laboratory results published in PMC7770212 (Journal of Psychopharmacology (Oxford, England), 2020).

Legend:
[1] = system: striatal dopamine D2 receptors; conditions: 0.5 mg/kg/day subcutaneous delivery; ref Kapur et al., 2003; cited from earlier work
[2] = system: AMPH-sensitized rats; assay: Pre-pulse inhibition; format: in vivo, rat; conditions: HAL 0.1 mg/kg/day i.c.v. mini pump, day 7; versus AMPH-VEH
[3] = system: psychotic-like rats; assay: Pilot study: continuous HAL into the lateral ventricle; format: in vivo, rat; conditions: data not shown

O=C(CCCN1CCC(O)(c2ccc(Cl)cc2)CC1)c1ccc(F)cc1 [HAL, Haloperidol]
striatal dopamine D2 receptor occupancy [1]: 73% | PPI of the acoustic startle response [2]: clearly improved PPI | alleviation of psychotic-like symptoms ([3]; 0.1 mg/kg/day continuous i.c.v. versus 0.01 or 0.03 mg/kg/day): significantly more effective | extrapyramidal side effects ([3]; 0.1 mg/kg/day continuous i.c.v.): without causing extrapyramidal side effects
